Reference: article PMC7125889 (Bioorganic & Medicinal Chemistry, 2008)
Counter-ions that a name gives are not always drawn.

How the values were obtained:
NMDA receptors = assay: NMDA receptor antagonist functional assay, intracellular calcium; type: cell-based; details: for times more potent than amantadine as NMDA receptor antagonist: vs amantadine
[1] = system: bloodstream form T. brucei (strain 427); assay: Trypanocidal activity against cultured bloodstream form T. brucei; details: concentrations up to 5 μg mL−1

Structure (SMILES) | activity against cultured bloodstream form T. brucei [1] | other results
NCC12CC3CC(CC1C3)C2 [Compound 14, [(Tricyclo[3.3.1.0^3,7]non-3-yl)methyl]amine hydrochloride] |  | NMDA receptor antagonist activity (in words) (NMDA receptors; cerebellar granule neurons, highest concentration tested): no NMDA receptor antagonist activity
CC12CC3CC1(C)CC3(N)C2 [Compound 21, 3,7-Dimethyl(tricyclo[3.3.0.0^3,7]oct-1-yl)amine·HCl] | no significant activity | times more potent as NMDA receptor antagonist than 3-noradamantylamine, 7 (NMDA receptors; vs compound 7): 4 times
CC12CC3CC1(C)CC3(NCc1ccccc1)C2 [Compound 22a, N-Benzyl-3,7-dimethyl(tricyclo[3.3.0.0^3,7]oct-1-yl)amine hydrochloride] | no significant activity | 
CN(Cc1ccccc1)C12CC3(C)CC1CC3(C)C2 [Compound 23, N-Benzyl-N,3,7-trimethyl(tricyclo[3.3.0.0^3,7]oct-1-yl)amine hydrochloride] | no significant activity | 
CC(N)C12CC3(C)CC1CC3(C)C2 (stereo not drawn) [Compound 25, 1-(3,7-Dimethyltricyclo[3.3.0.0^3,7]oct-1-yl)ethylamine hydrochloride] |  | times more potent than amantadine as NMDA receptor antagonist (NMDA receptors; NMDA challenge): 2.5 times
CC12CC3CC1(C)CC3(N(Cc1ccccc1)Cc1ccccc1)C2 [Compound 27, N,N-Dibenzyl-3,7-dimethyl(tricyclo[3.3.0.0^3,7]oct-1-yl)amine hydrochloride] | no significant activity | 
CNC12CC3(C)CC1CC3(C)C2 [Compound 28, N-3,7-Trimethyl(tricyclo[3.3.0.0^3,7]oct-1-yl)amine hydrochloride] | no significant activity | 
CN(Cc1ccccc1)CC12CC3(C)CC1CC3(C)C2 [Compound 32, N-Benzyl-N-methyl[(3,7-dimethyltricyclo[3.3.0.0^3,7]oct-1-yl)methyl]amine hydrochloride] | no significant activity | 
CC12CC3CC1(C)CC3(CN1CCCCC1)C2 [Compound 34, N-[(3,7-Dimethyltricyclo[3.3.0.0^3,7]oct-1-yl)methyl]piperidine hydrochloride] | no significant activity | 
CC12CC3CC1(C)CC3(CNC(=N)N)C2 [Compound 35, N-[(3,7-dimethyltricyclo[3.3.0.0^3,7]oct-1-yl)methyl]guanidine hydrochloride] | without antiviral and trypanocidal activities | times more potent than amantadine as NMDA receptor antagonist (NMDA receptors; NMDA challenge): 10 times; times more potent than corresponding noradamantyl analog, 18 (NMDA receptors; vs compound 18): 3.5 times; times less potent than memantine as NMDA receptor antagonist (NMDA receptors; vs memantine, NMDA challenge): 5 times
CNCC12CC3(C)CC1CC3(C)C2 [Compound 36, N-Methyl[(3,7-dimethyltricyclo[3.3.0.0^3,7]oct-1-yl)methyl]amine hydrochloride] | no significant activity | 
